# From PubChem BioAssay AID328 (DTP/NCI, 2004)
# “And” between values parts separate entries of the source, which are not always exact repeats. Equal values may be shown once. Toxic doses and inconclusive results are not listed.
# Test system: BDF1 mice, P388 leukemia ip, median survival T/C
# Assay: NCI In Vivo Anticancer Drug Screen. Data for tumor model P388 Leukemia (intraperitoneal) in B6D2F1 (BDF1) mice
# Conditions: endpoint: median survival time, higher = longer survival
# Outline: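 Each value expresses how treatment altered survival: treated-mouse outcome over vehicle-mouse outcome, both groups bearing the transplanted tumour.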
# [1] = dose: 400.0 mg/kg/injection, schedule: Q04DX003 (ip), vehicle: saline with Tween-80
# [2] = dose: 6.25 mg/kg/injection, schedule: Q01DX009 (ip), vehicle: saline with Tween-80
# [3] = dose: 12.5 mg/kg/injection, schedule: Q01DX009 (ip), vehicle: saline with Tween-80
# [4] = dose: 12.5 mg/kg/injection, schedule: Q04DX003 (ip), vehicle: saline with Tween-80
# [5] = dose: 25.0 mg/kg/injection, schedule: Q01DX009 (ip), vehicle: saline with Tween-80
# [6] = dose: 25.0 mg/kg/injection, schedule: Q04DX003 (ip), vehicle: saline with Tween-80
# [7] = dose: 100.0 mg/kg/injection, schedule: Q04DX003 (ip), vehicle: saline with Tween-80
# [8] = dose: 200.0 mg/kg/injection, schedule: Q04DX003 (ip), vehicle: saline with Tween-80
# [9] = dose: 50.0 mg/kg/injection, schedule: Q04DX003 (ip), vehicle: saline with Tween-80
# [10] = dose: 100.0 mg/kg/injection, schedule: Q04DX003 (ip), vehicle: Klucel (hydroxypropylcellulose) (HPC)
smiles,measurement,setting,value
Cc1ccc(NC(=O)c2ccc(C)c([N+](=O)[O-])c2)c(C)c1,T/C,"dose: 100.0 mg/kg/injection, schedule: Q01DX008 (sc), vehicle: olive oil, sesame oil, peanut oil",87 % of control
same,T/C,"dose: 100.0 mg/kg/injection, schedule: Q04DX003 (sc), vehicle: olive oil, sesame oil, peanut oil",88 % of control
same,T/C,"dose: 200.0 mg/kg/injection, schedule: Q01DX008 (sc), vehicle: olive oil, sesame oil, peanut oil",100 % of control
same,T/C,"dose: 200.0 mg/kg/injection, schedule: Q04DX003 (sc), vehicle: olive oil, sesame oil, peanut oil",88 % of control
same,T/C,"dose: 400.0 mg/kg/injection, schedule: Q01DX008 (sc), vehicle: olive oil, sesame oil, peanut oil",87 % of control
same,T/C,"dose: 400.0 mg/kg/injection, schedule: Q04DX003 (sc), vehicle: olive oil, sesame oil, peanut oil",92 % of control
CCOc1ccc(Br)cc1/C=N\N=C\c1cc(Br)ccc1OCC,T/C,"dose: 6.0 mg/kg/injection, schedule: Q01DX001 (ip), vehicle: Klucel (hydroxypropylcellulose) (HPC)",87 % of control
same,T/C,"dose: 12.0 mg/kg/injection, schedule: Q01DX001 (ip), vehicle: Klucel (hydroxypropylcellulose) (HPC)",95 % of control
same,T/C,"dose: 25.0 mg/kg/injection, schedule: Q01DX001 (ip), vehicle: Klucel (hydroxypropylcellulose) (HPC)",86 % of control
COc1cc2c(cc1OC)-c1c(C)c3ccc(OC)c(NCCN)c3c[n+]1CC2,T/C,"dose: 3.12 mg/kg/injection, schedule: Q01DX005 (ip), vehicle: water",100 % of control
same,T/C,"dose: 3.13 mg/kg/injection, schedule: Q04DX003 (ip), vehicle: water",101 % of control
same,T/C,"dose: 6.25 mg/kg/injection, schedule: Q01DX005 (ip), vehicle: water",97 % of control
same,T/C,"dose: 6.25 mg/kg/injection, schedule: Q04DX003 (ip), vehicle: water",108 % of control
same,T/C,"dose: 12.5 mg/kg/injection, schedule: Q01DX005 (ip), vehicle: water",100 % of control
same,T/C,"dose: 12.5 mg/kg/injection, schedule: Q04DX003 (ip), vehicle: water",110 % of control
same,T/C,"dose: 25.0 mg/kg/injection, schedule: Q01DX005 (ip), vehicle: water",98 % of control
same,T/C,"dose: 25.0 mg/kg/injection, schedule: Q04DX003 (ip), vehicle: water",98 % of control and 120 % of control
CCCCCCCCCCCCCCCCCCCCCCCCC(O)C(=O)NC(CO)C(O)C(O)CCCCCCCCCCCCCC (centres undefined),T/C,[1],87 % of control
CC(=O)CC(C)=O.CC(=O)CC(C)=O.[Co],T/C,[2],96 % of control
same,T/C,"dose: 6.25 mg/kg/injection, schedule: Q04DX003 (ip), vehicle: saline with Tween-80",88 % of control
same,T/C,[3],112 % of control
same,T/C,[4],92 % of control
same,T/C,[5],120 % of control
same,T/C,[6],92 % of control
O=C=Nc1ccc(Cl)c(Cl)c1 (tested in a mixture with another compound),T/C,"dose: 50.0 mg/kg/injection, schedule: Q01DX011 (ip), vehicle: Klucel (hydroxypropylcellulose) (HPC)",107 % of control
same,T/C,"dose: 100.0 mg/kg/injection, schedule: Q01DX011 (ip), vehicle: Klucel (hydroxypropylcellulose) (HPC)",109 % of control
same,T/C,"dose: 200.0 mg/kg/injection, schedule: Q01DX011 (ip), vehicle: Klucel (hydroxypropylcellulose) (HPC)",100 % of control
same,T/C,"dose: 400.0 mg/kg/injection, schedule: Q01DX011 (ip), vehicle: Klucel (hydroxypropylcellulose) (HPC)",102 % of control
COc1ccc2nc3cc(Cl)ccc3c(Cl)c2c1,T/C,"dose: 100.0 mg/kg/injection, schedule: Q01DX009 (ip), vehicle: saline with Tween-80",95 % of control
same,T/C,[7],109 % of control
same,T/C,"dose: 200.0 mg/kg/injection, schedule: Q01DX009 (ip), vehicle: saline with Tween-80",95 % of control
same,T/C,[8],100 % of control
same,T/C,"dose: 400.0 mg/kg/injection, schedule: Q01DX009 (ip), vehicle: saline with Tween-80",95 % of control
same,T/C,[1],109 % of control
CCOC(=O)C(CCSC(C)=O)SC(C)=O (centres undefined),T/C,[2],96 % of control
same,T/C,[3],122 % of control
same,T/C,[4],111 % of control
same,T/C,[5],114 % of control
same,T/C,[6],115 % of control
same,T/C,"dose: 50.0 mg/kg/injection, schedule: Q01DX009 (ip), vehicle: saline with Tween-80",104 % of control
same,T/C,[9],109 % of control and 111 % of control
CC1=CC2=C(C=O)C(=O)[C@](C)(O)[C@@H](O)C2=CO1,T/C,"dose: 44.0 mg/kg/injection, schedule: Q04DX003 (ip), vehicle: Klucel (hydroxypropylcellulose) (HPC)",101 % of control
same,T/C,"dose: 44.0 mg/kg/injection, schedule: Q04DX003 (ip), vehicle: saline with Tween-80",108 % of control and 114 % of control
same,T/C,"dose: 66.0 mg/kg/injection, schedule: Q04DX003 (ip), vehicle: Klucel (hydroxypropylcellulose) (HPC)",115 % of control
same,T/C,"dose: 66.0 mg/kg/injection, schedule: Q04DX003 (ip), vehicle: saline with Tween-80",116 % of control
same,T/C,[10],108 % of control
same,T/C,"dose: 150.0 mg/kg/injection, schedule: Q04DX003 (ip), vehicle: saline with Tween-80",108 % of control
same,T/C,[8],95 % of control
Cc1c([C@H](C)[C@@H]2NC[C@@H](C)C[C@H]2O)ccc2c1C[C@H]1[C@H]2CC=C2C[C@@H](O)CC[C@@]21C,T/C,"dose: 3.0 mg/kg/injection, schedule: Q01DX010 (ip), vehicle: carboxymethylcellulose (CMC)",115 % of control
Cc1onc(-c2ccccc2Cl)c1C(=O)Nc1ccccc1CC1c2ccccc2CCN1C (centres undefined),T/C,"dose: 50.0 mg/kg/injection, schedule: Q01DX009 (ip), vehicle: Klucel (hydroxypropylcellulose) (HPC)",101 % of control
same,T/C,"dose: 100.0 mg/kg/injection, schedule: Q01DX009 (ip), vehicle: Klucel (hydroxypropylcellulose) (HPC)",104 % of control
same,T/C,"dose: 200.0 mg/kg/injection, schedule: Q01DX009 (ip), vehicle: Klucel (hydroxypropylcellulose) (HPC)",95 % of control
CC(N)Cc1c(Cl)cc(N(C)C)cc1Cl (centres undefined),T/C,"dose: 3.13 mg/kg/injection, schedule: Q01DX009 (ip), vehicle: saline",100 % of control
same,T/C,"dose: 6.25 mg/kg/injection, schedule: Q01DX009 (ip), vehicle: saline",100 % of control
same,T/C,"dose: 12.5 mg/kg/injection, schedule: Q01DX009 (ip), vehicle: saline",102 % of control
O=S(=O)(Oc1ccccc1)C(F)(F)C(F)(F)C(F)(F)C(F)(F)F,T/C,"dose: 50.0 mg/kg/injection, schedule: Q01DX009 (ip), vehicle: saline",109 % of control
same,T/C,"dose: 100.0 mg/kg/injection, schedule: Q01DX009 (ip), vehicle: saline",106 % of control
same,T/C,"dose: 200.0 mg/kg/injection, schedule: Q01DX009 (ip), vehicle: saline",109 % of control
CCN(CC)N=Nc1ccccc1-c1nc(N)c2ccccc2n1,T/C,"dose: 50.0 mg/kg/injection, schedule: Q04DX003 (ip), vehicle: Klucel (hydroxypropylcellulose) (HPC)",157 % of control
same,T/C,[10],161 % of control
same,T/C,"dose: 200.0 mg/kg/injection, schedule: Q04DX003 (ip), vehicle: Klucel (hydroxypropylcellulose) (HPC)",180 % of control
CCC(=O)c1cc([N+](=O)[O-])ccc1N,T/C,[9],90 % of control
same,T/C,[7],95 % of control
same,T/C,[8],109 % of control
